One data set deals with IL-4 and IL-13. In words: RT-PCR of IL-4 and IL-13 mRNA in activated T cells. It counts as cell-based, human. The settings on record: 2 h pretreatment, anti-CD3 activation 3 h; similar after 6 or 12 h. As for the experimental part: RNA purification, RT-PCR, and CDNA synthesis. After pretreatment with the indicated concentrations of CSPG-DS for 2 h, […], lysed with TRI reagent (MRC, Cincinnati, Ohio), and total cellular RNA was purified from lysates using the RNeasy kit (Qiagen, Hilden, Germany) according to the manufacturer's instructions. RNA was converted to cDNA using SuperScript II (Promega, Madison, Wis.), as recommended by the manufacturer. The expression of specific mRNAs was assayed by RT-PCR, using the messageScreen™ Human Th1/Th2 Cytokine Set 1 Multiplex PCR® kits (BioSource International, Camarillo, Calif.), according to the manufacturer's instructions.

A further data set concerns NF-κB. As to the kind of experiment: Western blot of NF-κB in T-cell nuclear extracts. It counts as cell-based, human. The settings on record: T cells activated by anti-CD3 Ab. As for the experimental part:
Western blot analysis of T-cell nuclear extracts. Purified T cells (5×10^6) were preincubated for 2 h with different concentrations of CSPG-DS. The cells were then replated at the same CSPG-DS concentration on 24-well plates pre-coated for 24 h with anti-CD3 mAb. The T cells were lysed in 10 mM HEPES, 1.5 mM MgCl2, 1 mM dithiothreitol, 1 mM PMSF, and 0.5% Nonidet P-40 (buffer A). The lysates were incubated on ice for 10 min and centrifuged at 2000 rpm for 10 min at 4° C. The supernatants (cytoplasmic extracts) were transferred and the pellets (nuclei) were suspended in buffer containing 30 mM HEPES, 450 mM NaCl, 25% glycerol, 0.5 mM EDTA, 6 mM dithiothreitol, 12 mM MgCl2 1 mM PMSF, 10 μg/ml leupeptin, 10 μg/ml pepstatin, and 1% phosphatase inhibitor cocktail (buffer B), and the suspension was incubated on ice for 30 min. The lysates were cleared by centrifugation (30 min, 14×10^3 rpm, 4° C.), and the resulting supernatants were analyzed for protein content. Sample buffer was added, the mixture was boiled, and the samples containing equal amounts of proteins were separated on 10% SDS-PAGE gel and transferred to nitrocellulose membranes. […]
In general terms: A western blot detects proteins with antibodies after separation by electrophoresis.

A further data set deals with PC12 cells. In words: PC12 cell viability after glutamate, XTT assay. The note with it: disaccharides 1 to 50 μg/ml for 45 min, glutamate 10^−3 M 15 min, XTT after 24 h. It counts as cell-based, rat. As for the experimental part: PC12 cell line. Rat pheochromocytoma (PC12) cells were cultured in DMEM containing horse serum and FCS, both at 8% (culture medium) or at 1% (differentiation medium).
Cell viability assay. PC12 cells were seeded on collagen-coated 96-well plates at a density of 10^4 cells per well (in differentiation medium containing 100 ng/ml NGF). The cells were incubated with CSPG-DS or other disaccharides at the indicated concentrations for 45 min, then washed with PBS and exposed to glutamate (10^−3 M) for 15 min. The glutamate solution was washed away and replaced with DMEM for a further 24 h of incubation. The number of viable cells was then determined with the XTT viability kit according to the manufacturer's instructions.

For a further data set, the system named is human T cells. It counts as cell-based. As for the experimental part: T-cell apoptosis: T cells (2×10^6 cells/ml) were incubated for 2 h with the indicated concentrations of CSPG-DS in RPMI medium containing 10% FCS, and then plated on 24-well plates (non-tissue-culture grade) precoated with anti-CD3 mAb (1 μg/ml; overnight) and cultured for 72 h. The percentage of cells undergoing apoptosis was determined using the annexin V-detection assay (Bender MedSystem, San Bruno, Calif.). The cells were incubated for 10 min in the dark at room temperature in 200 μl of buffer containing FITC-conjugated human annexin V ([…]; Bender MedSystem, Propidium iodide (10 μl) was added to each sample, and the percentage of cells undergoing apoptosis was analyzed by FACS® at 525 nm using CELLQuest Software. Cells that stained positively for annexin V and negatively for propidium iodide corresponded to the apoptotic cells.

Data set [1] relates to delayed-type hypersensitivity response in mice. As to the kind of experiment: Delayed-type hypersensitivity (DTH) assay, ear swelling. The settings on record: oxazalone-sensitized Balb/c mice, most efficient concentration of 1 μg/ml, relative to untreated. It counts as in vivo. As for the experimental part: Assay for delayed-type hypersensitivity. Groups of female inbred Balb/c mice (n=4 per group) were sensitized with 2% oxazalone (100 μl;) dissolved in acetone/olive oil (4:1 (vol/vol)) applied topically on the shaved abdominal skin. A delayed-type hypersensitivity (DTH) response was elicited 5 days later by challenge with 0.5% oxazalone in acetone/olive oil (10 μl applied topically to each side of one ear, and measured with an engineer's micrometer (Mitutoyo, Elk Grove Village, Ill., Tokyo, Japan)). Immediately before and 24 h after antigen challenge, the marked area was measured again.

Data set [2] concerns retinal ganglion cells (RGCs). As to the kind of experiment: Experimental autoimmune uveitis (EAU), RGC survival. It counts as in vivo. The note with it: R16-immunized Lewis rats, i.p. on days 3, 6, 9, 12 and 17; counted 3 weeks after immunization; mean±SD. As for the experimental part: Induction of experimental autoimmune uveitis. To induce experimental autoimmune uveitis (EAU), Lewis rats were immunized with R16 (30 μg), a peptide derived from an ocular antigen IRBP emulsified in CFA containing 2.5 mg/ml M. tuberculosis. A total volume of 100 μl was injected s.c. into each rat at the root of the tail. Rats were then divided into three groups. On days 3, 6, 9, 12 and 17 after immunization the rats in the first group were injected i.p. with CSPG-DS (15 μg/rat), and rats in the second group were injected i.p. with methylprednisolone (MP. 30 mg/kg; Solu-Medrol, 125 mg/ml, Pharmacia & Upjohn, Puurs, Belgium). Rats in third group were left untreated.

The next data set concerns MHC II. As to the kind of experiment: MHC II expression in microglia. It counts as cell-based.

For `CC(=O)N[C@H]1C(O)O[C@H](COS(=O)(=O)O)[C@H](O)[C@@H]1O[C@@H]1OC(C(=O)O)=C[C@H](O)[C@H]1O` (stereo partly drawn) [CSPG-DS, 2-acetoamido-2-deoxy-3-O-(β-D-gluco-4-enepyranosyluronic acid)-6-O-sulfo-D-galactose], the “mRNA levels of Th2-associated cytokines IL-4 and IL-13” value in the data set with IL-4 and IL-13 was “not affected”. In addition, the “NF-κB levels in nuclei” value in the data set on NF-κB is “reduction”. In addition, the “survival of PC12 cells exposed to glutamate” value in the data set on PC12 cells was “protected PC12 cells from glutamate toxicity”. Moreover, the “viability of the T cells (apoptosis)” value with human T cells is “did not significantly affect”. For the same molecule, the “reduction in DTH response” value in data set [1] was found to be 40%. Also, the “RGC loss relative to normal rats” value in data set [2] is given as 24±9%. Also, the “MHC II expression in microglia” value in the data set on MHC II was “activate microglia to express MHC II”.
